This note sets out measurements from ChEMBL document CHEMBL1142880, “Synthesis and anti-HIV activity evaluation of 1-[(alkenyl or alkynyl or alkyloxy)methyl]-5-alkyl-6-(1-naphthoyl)-2,4-pyrimidinediones as novel non-nucleoside HIV-1 reverse transcriptase inhibitors” (Eur J Med Chem, 2007).

By IC50 is commonly meant the concentration needed to halve the response being measured. Lower therefore signals greater potency in that assay. For orientation: CC50 means the concentration giving 50% cytotoxicity.

Data set [1] deals with Human immunodeficiency virus 2. As to the kind of experiment: Antiviral activity against HIV2 ROD in MT4 cells after 4 days by MTT method. As to conditions: Human immunodeficiency virus 2, ROD, MT4, 96 h. Type of data set: functional, organism-based. For orientation: Formazan colour is commonly taken as a measure of viable cells.
The test system of data set [2] is Human immunodeficiency virus 1. As to the kind of experiment: Antiviral activity against HIV1 3B in MT4 cells after 4 days by MTT method. In kind it is functional, organism-based. As to conditions: Human immunodeficiency virus 1, 3B, MT4, 96 h.
A short description of data set [3]: Cytotoxicity against MT4 cells after 4 days by MTT method. Type of data set: cell-based. As to conditions: human.
The nature of data set [4]: Selectivity index, ratio of CC50 for MT4 cells to IC50 for HIV1 3B. Type of data set: functional.

Take `CCc1c(C(=O)c2cccc3ccccc23)n(COCc2ccccc2)c(=O)[nH]c1=O`: the concentration for half-maximal inhibition (IC50) is > 38.6 µM in data set [1] and 0.15 µM in data set [2]. Besides, in data set [3], the midpoint of cytotoxicity, the CC50 at 96 h, lay at 38.6 µM. The “Ratio CC50/IC50” value in data set [4] is listed as 257.
The matching figures for `CC(C)=CCn1c(C(=O)c2cccc3ccccc23)c(C(C)C)c(=O)[nH]c1=O`: > 30.8 µM, 2.42 µM, 30.8 µM and 13.
`CC(C)c1c(C(=O)c2cccc3ccccc23)n(COCc2ccccc2)c(=O)[nH]c1=O`: the 50% inhibitory concentration (IC50) is > 26.9 µM in data set [1] and 0.11 µM in data set [2]. In data set [3], the midpoint of cytotoxicity, the CC50 at 96 h, lay at 26.9 µM. Besides, the “Ratio CC50/IC50” value in data set [4] was 233.
The like results for `CCc1c(C(=O)c2cccc3ccccc23)n(C/C=C/C(=O)OC)c(=O)[nH]c1=O` were, in that order, > 38.6 µM, 0.71 µM, 38.6 µM and 54.
On to `CC(C)=CCn1c(C(=O)c2cccc3ccccc23)c(C)c(=O)[nH]c1=O`, for which the IC50 in data set [1] was > 131 µM; in data set [2], > 44.6 µM. In data set [3], this compound showed a 50% cytotoxic concentration (CC50) at 96 h of 44.6 µM. In addition, in data set [4], the “Ratio CC50/IC50” value is listed as <1.
The like results for `C=CCOCn1c(C(=O)c2cccc3ccccc23)c(CC)c(=O)[nH]c1=O` were, in that order, > 45.6 µM, 0.19 µM, 45.6 µM and 243.
On to `CCc1c(C(=O)c2cccc3ccccc23)n(CC#Cc2ccccc2)c(=O)[nH]c1=O`, for which the IC50 in data set [1] is > 17 µM; in data set [2], 0.21 µM. The compound also had a CC50 at 96 h in data set [3] of 17 µM. The “Ratio CC50/IC50” value in data set [4] stood at 83.
The matching figures for `CCc1c(C(=O)c2cccc3ccccc23)n(CC2CC=CC2)c(=O)[nH]c1=O`: > 18.6 µM, 0.22 µM, 18.6 µM and 84.
For the compound `CCc1c(C(=O)c2cccc3ccccc23)n(COCC2CC2)c(=O)[nH]c1=O`, the values for the IC50 in data set [1] and in data set [2] were > 45.3 µM and 0.93 µM, respectively. The same compound had a CC50 at 96 h in data set [3] of 45.3 µM. In addition, the “Ratio CC50/IC50” value in data set [4] worked out at 48.
The matching figures for `Cc1c(C(=O)c2cccc3ccccc23)n(COCC2CC2)c(=O)[nH]c1=O`: > 77.6 µM, 7.69 µM, 77.6 µM and 10.
The matching figures for `CCc1c(C(=O)c2cccc3ccccc23)n(COCc2ccc([N+](=O)[O-])cc2)c(=O)[nH]c1=O`: > 30.5 µM, 0.54 µM, 30.5 µM and 55.
The matching figures for `CC(=O)OC/C=C(\C)Cn1c(C(=O)c2cccc3ccccc23)c(C)c(=O)[nH]c1=O`: > 200 µM, 41.4 µM, 200 µM and 5.
`Cc1c(C(=O)c2cccc3ccccc23)n(COCc2ccccc2)c(=O)[nH]c1=O`: the values for the half-maximal inhibitory concentration (IC50) in data set [1] and in data set [2] were > 45.6 µM and 1.6 µM, respectively. The compound also showed a CC50 at 96 h in data set [3] of 45.6 µM. The “Ratio CC50/IC50” value in data set [4] amounted to 29.
The matching figures for `CCOCn1c(C(=O)c2cccc3ccccc23)c(CC)c(=O)[nH]c1=O`: > 23 µM, 0.28 µM, 23 µM and 78.
Take `O=c1[nH]cnc2c1ncn2[C@H]1CC[C@@H](CO)O1` [DIDANOSINE]: the 50% cytotoxic concentration (CC50) at 96 h in data set [3] is ≥ 529 µM. Besides, the “Ratio CC50/IC50” value in data set [4] is “>=98”.
As to `CCc1c(C(=O)c2cccc3ccccc23)n(COCC=C(C)C)c(=O)[nH]c1=O`, the IC50 in data set [1] is > 36.4 µM; in data set [2] it was 6.89 µM. This compound also came in with a CC50 at 96 h in data set [3] of 36.4 µM. Besides, in data set [4], the “Ratio CC50/IC50” value was determined as 5.
The like results for `CCOCn1c(C(=O)c2cccc3ccccc23)c(C)c(=O)[nH]c1=O` were, in that order, > 51.7 µM, 4.02 µM, 51.7 µM and 13.
The matching figures for `Cc1c(C(=O)c2cccc3ccccc23)n(CC#Cc2ccccc2)c(=O)[nH]c1=O`: > 29.9 µM, 2.79 µM, 29.9 µM and 11.
Turning to `C=CCOCn1c(C(=O)c2cccc3ccccc23)c(C)c(=O)[nH]c1=O`, the concentration for half-maximal inhibition (IC50) in data set [1] is > 131 µM; in data set [2] it was 2.11 µM. For the same compound, the CC50 at 96 h in data set [3] is 131 µM. Further, in data set [4], the “Ratio CC50/IC50” value turned out to be 62.
With `Cc1c(Sc2ccccc2)n(COCCO)c(=O)[nH]c1=O` [HEPT], the IC50 in data set [1] was > 406 µM. The compound also showed a CC50 at 96 h in data set [3] of 405 µM. Also, in data set [4], the “Ratio CC50/IC50” value is reported as 80.
